Laboratory results taken from patent US20260055081A1, “Metal Chelator Compounds, Coordination Complexes, and Methods of Preparation and Use Thereof” (University of Puerto Rico, priority 2022, published 2026).
Structures can show the parent of a compound that is named as a salt.

Legend:
red blood cells = assay: CO-ADD hemolysis assay; type: cell-based, human; details: for hemolysis behavior relative to DefNEtTrp (minor hemolysis): human red blood cells
Experimental: CO-ADD hemolysis assay. Dry compounds ranging from 1-2 mg were delivered to the CO-ADD. The compounds were solubilized to a stock concentration of 10 mg/mL in DMSO. Samples were serially diluted 1:2 fold in water to final testing concentrations of […] while keeping the final DMSO concentration to a maximum of 0.32% (v/v). Each sample concentration was prepared in polypropylene 384-well plates (Corning 3657) for hemolysis assays, all in two duplicate plates (n=2). All sample preparation was conducted using liquid handling robots. Human whole blood (Australian Red Cross) was washed three times with three volumes of 0.9% NaCl (w/v) and resuspended in a concentration of […], determined by manual cell count in a Neubauer hemocytometer. Washed cells were added to the compound-containing plates for a final volume of 50 μL. After a 10 min shake on a plate shaker the plates were then incubated for 1 h at 37° C. After incubation, the plates were centrifuged at 1000 g for 10 min to pellet cells and debris, 25 μL of the supernatant was then transferred to reading plates (384 well, polystyrene plated (PS), Corning CLS3680), with hemolysis determined by measuring the supernatant absorbance at […] (OD405) using a Tecan M1000 Pro monochromator plate reader. HC10 and HC50 (concentration at 10% and 50% hemolysis, respectively) were calculated by curve fitting the inhibition values vs. log(concentration) using a sigmoidal dose-response function with variable fitting values for the top, bottom, and slope. The maximal percentage of hemolysis is reported as Dmax. Hemolysis samples are classified by HC10≤32 μg/mL. […] Melittin was used in 8 concentrations in 2-fold serial dilutions with 50 µg/mL being the highest concentration.

[1] = system: Jurkat Leukemia cell line; assay: Jurkat cell viability (MTT assay); type: cell-based; details: Homo sapiens; Jurkat cell line, 72 h, MTT
Experimental: Jurkat cell culturing and cell viability studies. Jurkat cells are nonadherent cells, and they were cultured in an RPMI-1640 media (supplemented with 10% FBS (v/v) and 1% antibiotic solution (v/v) of penicillin/streptomycin) in non-tissue-culture treated 25 mL flasks according to the known protocol provided by the supplier ATCC. The cell passaging was done at 70% confluency by taking 3 mL of cells and diluting to 25 mL of fresh media. The cells were incubated at 37° C. in 5% CO2 atmosphere.
Jurkat cytotoxicity of DefNEtTrp (6), Def (5), NEtTrp (4), Trp, and 1:1 combinations of 5 with 4 and 5 with Trp was determined by the colorimetric 3-(4,5-dimethylthiazol-2-yl)-2,5-diphenyltetrazolium bromide (MTT) assay. Incubation conditions were the same in all the steps. Cells in 80-95% confluence (grown in standard circular tissue culture dishes, BD Falcon) were separately seeded into 96-well plates using phenol red free RPMI-1640 media (containing 10% FBS and 1% streptomycin/penicillin) in a volume of 50 μL at a concentration of 5.0×10^5 cells/mL. Following this procedure, the Jurkat cells were treated immediately. Stock solution of the compounds were first prepared in DMF at 5 mM and stored at 4° C. for up to 30 days. The stock solution was diluted to specific concentrations using 1×PBS (0.2-20 μM) while DMF was maintained at 1% (v/v). 50 μL of diluted solutions were added in all cell containing wells with at least six replicates per concentration (n=6). The final percentage (v/v) of DMF was 0.5%. The cells were also co-treated with 5 with 4 and 5 with Trp in a 1:1 mole equivalent ratio over the same concentration range but as a combined concentration of both compounds. Control wells in the plates consisted of one lane of cells treated with media alone including 0.5% DMF (v/v) as the measure of 100% viable cell growth in the media. Another control lane consisted of no cells with media including 0.5% DMF (v/v) as a measure of the background with no viable cells. The plates were incubated for 72 h. At 4 h before completion of the incubation time, 25 μL of MTT solution (sterile filtered 5 mg/mL solution, dissolved in 1×PBS buffer) was added to each well. During addition of the MTT solution, the plates were protected from light. After completion a 50 μL portion of 4% (w/v) SDS solution (sterile filtered, dissolved in Tris buffer 1M, pH=10) was added to each well and incubated to solubilize formazan crystals after MTT cell labeling. The absorbance of each well was measured at 570 nm (absorbance of the formazan product at pH >10.0) and 800 nm (as a background correction) using a Tecan plate reader. The absorbance of all wells was compared to the absorbance of the untreated cells with the MTT set as the 100% viable cell standard and the absorbance of the no cell control set as the 0% viable cell standard. Nonlinear regression in GraphPad Prism 8 was utilized to fit the growth curve over the various drug concentrations to determine the half-maximal inhibitory concentration (IC50). All cell viability experiments, including non-Jurkat cells, were repeated at least once for biological duplicates. To confirm cell death at the higher concentration dosages of the compounds and combinations, dead cells were blue stained with trypan blue and visually inspected under the microscope.

Jurkat cells = assay: Apoptosis mechanistic cell viability study (Q-VD-OPh); type: cell-based, human; details: 10 μM Q-VD-OPh pretreatment, 2 μM cisplatin, 72 h
Experimental: Apoptosis mechanistic cell viability study. Jurkat cells were seeded into 96-well plates, as indicated in the MTT assay described above. The cells were treated with 10 μM of the apoptosis inhibitor Q-VD-OPh (Q-V-O). Another group of cells were treated with media alone. After 1 h incubation, half of the cells supplemented with Q-V-O were treated with 2 μM DefNEtTrp or 2 μM cisplatin, as positive control, while the other half was treated with media alone. The final percentage of DMF was maintained at 0.5% (v/v). The MTT assay was performed with these samples (n=6). A student t-test was performed to evaluate the difference in the viability of cells treated with DefNEtTrp or cisplatin and supplemented with and without Q-V-O.

O=C(O)c1ccc(-n2nc(-c3ccccc3O)nc2-c2ccccc2O)cc1 [Def, deferasirox, reference compound]
hemolysis behavior relative to DefNEtTrp (minor hemolysis) (red blood cells): comparable | IC50 [1]: 2600 ± 150 nM

CC[C@H](C)[C@H](NC(=O)CN)C(=O)NCC(=O)N[C@@H](C)C(=O)N[C@H](C(=O)N[C@@H](CC(C)C)C(=O)N[C@@H](CCCCN)C(=O)N[C@H](C(=O)N[C@@H](CC(C)C)C(=O)N[C@H](C(=O)N[C@H](C(=O)NCC(=O)N[C@@H](CC(C)C)C(=O)N1CCC[C@H]1C(=O)N[C@@H](C)C(=O)N[C@@H](CC(C)C)C(=O)N[C@H](C(=O)N[C@@H](CO)C(=O)N[C@@H](Cc1c[nH]c2ccccc12)C(=O)N[C@H](C(=O)N[C@@H](CCCCN)C(=O)N[C@@H](CCCNC(=N)N)C(=O)N[C@@H](CCCCN)C(=O)N[C@@H](CCCNC(=N)N)C(=O)N[C@@H](CCC(N)=O)C(=O)N[C@@H](CCC(N)=O)C(N)=O)[C@@H](C)CC)[C@@H](C)CC)[C@@H](C)O)[C@@H](C)O)C(C)C)C(C)C [Melittin]
HC10 and HC50 values (red blood cells; positive hemolytic control): within the expected range

NCCNC(=S)N/N=C/c1ncccc1N [NEtTrp, nitrogen ethyl triapine dihydrochloride]
hemolysis behavior relative to DefNEtTrp (minor hemolysis) (red blood cells): comparable | IC50 [1]: 5900 ± 290 nM

NC(=S)NN=Cc1ncccc1N [Trp, 3-aminopyridine-2-carboxaldehyde-thiosemicarbazone, reference compound]
hemolysis behavior relative to DefNEtTrp (minor hemolysis) (red blood cells): comparable | IC50 [1]: 1100 ± 40 nM

N.N.[Cl][Pt][Cl] [cisplatin, reference compound]
antiproliferative activity when cells are pretreated with Q-VD-OPh (Jurkat cells): less antiproliferative activity
